Data as given in BindingDB's records for doi:10.1124/jpet.103.058636 (National Institutes of Health, 2004).

Target: Sodium-dependent serotonin transporter (Mus musculus, UniProt Q60857)
Sequence (Q60857 whole entry): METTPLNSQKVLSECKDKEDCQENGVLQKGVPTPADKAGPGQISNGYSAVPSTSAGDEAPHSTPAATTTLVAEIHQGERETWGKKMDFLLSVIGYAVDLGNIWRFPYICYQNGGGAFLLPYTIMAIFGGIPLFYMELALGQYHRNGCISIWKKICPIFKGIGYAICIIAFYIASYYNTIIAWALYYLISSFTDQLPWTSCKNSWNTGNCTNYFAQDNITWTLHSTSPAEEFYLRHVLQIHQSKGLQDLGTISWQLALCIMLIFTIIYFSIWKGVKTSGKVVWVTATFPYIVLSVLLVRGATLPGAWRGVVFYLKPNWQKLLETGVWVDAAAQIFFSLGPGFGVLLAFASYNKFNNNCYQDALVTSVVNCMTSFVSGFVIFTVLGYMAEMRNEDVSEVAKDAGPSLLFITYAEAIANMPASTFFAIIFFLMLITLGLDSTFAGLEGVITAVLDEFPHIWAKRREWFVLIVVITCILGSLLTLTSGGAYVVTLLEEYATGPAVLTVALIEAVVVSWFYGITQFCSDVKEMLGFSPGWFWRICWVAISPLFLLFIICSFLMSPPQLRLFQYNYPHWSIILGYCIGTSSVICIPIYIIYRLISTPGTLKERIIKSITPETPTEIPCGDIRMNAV

**Q.** Which Ki does the source give for `CCNC(C)Cc1cccc(C(F)(F)F)c1` (stereo unspecified) [NSC_3337] here?
**A.** 7.05 µM
